Values quoted from earlier work in patent publication US20070110909A1, “Reduction or elimination of microbial growth and biofouling of salted wet biomass byproducts” (priority 2005, published 2007).

Key:
rats, mice and hamsters = conditions: fore-stomachs of rats
animal tests = conditions: birth defects in rats

Row | Structure (SMILES) | tumors in animals (rats, mice and hamsters) | toxic effects in animal tests (animal tests)
1 | COc1ccc(O)c(C(C)(C)C)c1 [BHA, Butylated hydroxyanisole] | caused cancerous tumors | 
2 | Cc1cc(C(C)(C)C)c(O)c(C(C)(C)C)c1 [BHT, Butylated hydroxytoluene] |  | caused liver cancer and lung tumors, increased blood cholesterol, reduced growth rates and body weight
